Measurements as given in ChEMBL document CHEMBL1133022, “Predicting blood-brain barrier permeation from three-dimensional molecular structure” (J Med Chem, 2000).

Organism: Mus musculus
Assay: BBB penetration classification

SMILES	Permeability	BBB Impermeable (in vivo)
C[C@H](CN1c2ccccc2Sc2ccccc21)N(C)C	Permeable	–
CCC(NC(=O)c1c(C)c(-c2ccccc2)nc2ccccc12)c1ccccc1 (stereo unspecified)	Permeable	–
CC(C)(C)c1ccc([C@@H](O)CCCN2CCC(C(O)(c3ccccc3)c3ccccc3)CC2)cc1	Impermeable	–
O=C(Cc1ccc(Cl)c(Cl)c1)N1CCc2occc2[C@H]1CN1CC[C@H](O)C1	Permeable	–
O=C(Cc1ccc(Cl)c(Cl)c1)N1CCCC[C@H]1CN1CCCC1	Permeable	–
O=C(Cc1ccc(Cl)c(Cl)c1)N1CCc2occc2[C@H]1CN1CC[C@@H](O)C1 (mixture of isomers)	Permeable	–
O=C(Cc1ccc(Cl)c(Cl)c1)N1CCc2occc2[C@@H]1CN1CC[C@H](O)C1 (racemic)	Permeable	–
C[C@@H](CN1c2ccccc2Sc2ccccc21)N(C)C [(S)-PROMETHAZINE]	Permeable	–
COc1ccc(CCN2CCC(Nc3nc4ccccc4n3Cc3ccc(F)cc3)CC2)cc1 [ASTEMIZOLE]	Impermeable	–
Cn1c(=O)c2c(ncn2C)n(C)c1=O [CAFFEINE]	Permeable	–
CN(C)CCCN1c2ccccc2Sc2ccc(Cl)cc21 [CHLORPROMAZINE]	Permeable	–
CN/C(=N/CCSCc1nc[nH]c1C)NC#N [CIMETIDINE]	Impermeable	–
Clc1cccc(Cl)c1N=C1NCCN1 [CLONIDINE]	Permeable	–
CNCCCN1c2ccccc2CCc2ccccc21 [DESIPRAMINE]	Permeable	–
O=c1[nH]c2ccccc2n1CCCN1CCC(n2c(=O)[nH]c3cc(Cl)ccc32)CC1 [DOMPERIDONE]	Impermeable	–
NCCc1ccc(O)c(O)c1 [DOPAMINE]	Impermeable	–
CC(C)(C)c1ccc(C(=O)CCCN2CCC(OC(c3ccccc3)c3ccccc3)CC2)cc1 [EBASTINE]	Impermeable	–
C[C@]12CC[C@@H]3c4ccc(O)cc4CC[C@H]3[C@@H]1CC[C@@H]2O [ESTRADIOL]	Permeable	–
N[C@@H](Cc1ccc(O)c(O)c1)C(=O)O [LEVODOPA]	–	Impermeable
O=C1CC[C@@]2(O)[C@H]3Cc4ccc(O)c5c4[C@@]2(CCN3CC2CC2)[C@H]1O5 [NALTREXONE]	Permeable	–
CCn1cc(C(=O)O)c(=O)c2cc(F)c(N3CCNCC3)cc21 [NORFLOXACIN]	Impermeable	–
OCCN1CCN(CCCN2c3ccccc3Sc3ccc(Cl)cc32)CC1 [PERPHENAZINE]	Permeable	–
CC(C)(C)c1ccc([C@H](O)CCCN2CCC(C(O)(c3ccccc3)c3ccccc3)CC2)cc1 [R-TERFENADINE]	Impermeable	–
CNC(=C[N+](=O)[O-])NCCSCc1ccc(CN(C)C)o1 [RANITIDINE]	Impermeable	–
CCCC(C)C1(CC)C(=O)NC(=S)NC1=O (stereo unspecified) [THIOPENTAL]	Permeable	–
CSc1ccc2c(c1)N(CCC1CCCCN1C)c1ccccc1S2 (stereo unspecified) [THIORIDAZINE]	Permeable	–
